The source of these data is EP4755880A1, “SUBSTITUTED NITROGEN-CONTAINING BICYCLIC COMPOUND AND USE THEREOF” (Sunshine Lake Pharma Co., Ltd., priority 2023, dated 2025).

The term IC50 denotes the midpoint of a concentration-inhibition curve. Read a low IC50 as greater potency in that assay.

One assay relates to DLD-1 BRCA2(-/-) cells. The assay can be described thus: Inhibition of proliferation of DLD-1 BRCA2(-/-) cells (CTG method). Format: cell-based. The following applies: Homo sapiens, DLD-1, 168 h; 7 days incubation, CellTiter-Glo. The protocol:
• 1. Cell Pretreatment: DLD-1 BRCA2(-/-) cells were cultured in growth medium 1640 + 10% FBS (fetal bovine serum) + 1% Penicillin-Streptomycin. Cells in the logarithmic growth phase were digested with trypsin-EDTA, centrifuged, and resuspended. DLD-1 BRCA2(-/-) cells were seeded at 1,000 cells/well in sterile 96-well opaque plates, 75 µl per well. After seeding, the cell culture plates were incubated overnight at 37 °C with 5% CO2 before adhesion, followed by treatment with the test compounds. • 2. DLD-1 BRCA2(-/-) Cell Drug Treatment: The test compound was prepared as a 10 mM stock solution using DMSO. The test compound was then diluted to a 4× working solution using growth medium (starting at 40 µM, with 9 4-fold dilutions). 25 µl of 4× working solution was added to each well to achieve final concentrations of 10000, 2500, 625, 156, 39, 9.7, 2.4, 0.61, and 0.152 nM, respectively. Blank control wells containing the same DMSO concentration were also included, with three replicates for each concentration. After adding the test compound, the cells were incubated at 37 °C with 5% CO2 for 7 days. • 3. After incubation, 100 µl of CellTiter-Glo® Reagent was added to each well, and […] intensity was measured. A curve was fitted using GraphPad software, and the IC50 value for cell proliferation inhibition was calculated.

Another assay has as its system MDA-MB-436 cells. The experiment in a line: Inhibition of proliferation of MDA-MB-436 cells (CellTiter-Glo). Format: cell-based. Particulars: Homo sapiens, MDA-MB-436, 168 h, 7 days incubation. The procedure:
• 1. Cell Pretreatment: MDA-MB-436 cells were cultured in DMEM + 10% FBS + 1% penicillin-dip antibiotics + 1% ITS + 16 µg/ml glutathione. Cells in the logarithmic growth phase were digested with trypsin-EDTA, centrifuged and resuspended, and then seeded at a rate of 500-1000 cells/well in sterile 96-well opaque plates, 90 µl per well. After seeding, the cell culture plates were incubated overnight at 37°C with 5% CO2 before drug treatment. • 2. Drug treatment of MDA-MB-436 cells: The test compound was prepared as a 10 mM stock solution using DMSO. The drug was then diluted to a 10× working solution using growth medium (the compound was started at 100 µM and diluted 4-fold to achieve 9 concentrations). 10 µl of the 10× working solution was added to each well to achieve final drug concentrations of 10000, 2500, 625, 156, 39, 9.7, 2.4, 0.61, and 0.152 nM, respectively. Blank control wells containing the same DMSO concentration were also included, with three replicates for each concentration. After drug addition, the cells were incubated at 37°C with 5% CO2 for 7 days. • 3. After incubation, 100 µl of CellTiter-Glo® Reagent was added to each well, and luminescence was measured. The IC50 value of cell proliferation inhibition was calculated using GraphPad software to fit the curve. Table E: Results of the inhibitory effect of the compound of this invention on the proliferation of MDA-MB-436 cells.
(ATP-based viability assays read luminescence as a measure of living cells.)

The target in another assay is PARP1 (Homo sapiens, UniProt P09874). The experiment in a line: Inhibition of PARP1 enzyme activity (ELISA, chemiluminescence). In kind it is biochemical. The following applies: for IC50: ELISA, histone-coated plate, NAD+, 60 min at 25 °C; for Selectivity PARP2/PARP1: ratio of PARP2 IC50 to PARP1 IC50. In general terms: ELISA stands for enzyme-linked immunosorbent assay.

The target in the next assay is PARP2 (Homo sapiens, UniProt Q9UGN5). The experiment in a line: biochemical.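 Note: PARP2 enzyme ELISA on histone-coated plates, Strep-HRP detection with chemiluminescence read-out, 10 min compound preincubation with enzyme, inhibition scaled between Max and Min signal controls.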

Some results are limits rather than exact numbers.

Chain of PARP2 (Q9UGN5 whole entry): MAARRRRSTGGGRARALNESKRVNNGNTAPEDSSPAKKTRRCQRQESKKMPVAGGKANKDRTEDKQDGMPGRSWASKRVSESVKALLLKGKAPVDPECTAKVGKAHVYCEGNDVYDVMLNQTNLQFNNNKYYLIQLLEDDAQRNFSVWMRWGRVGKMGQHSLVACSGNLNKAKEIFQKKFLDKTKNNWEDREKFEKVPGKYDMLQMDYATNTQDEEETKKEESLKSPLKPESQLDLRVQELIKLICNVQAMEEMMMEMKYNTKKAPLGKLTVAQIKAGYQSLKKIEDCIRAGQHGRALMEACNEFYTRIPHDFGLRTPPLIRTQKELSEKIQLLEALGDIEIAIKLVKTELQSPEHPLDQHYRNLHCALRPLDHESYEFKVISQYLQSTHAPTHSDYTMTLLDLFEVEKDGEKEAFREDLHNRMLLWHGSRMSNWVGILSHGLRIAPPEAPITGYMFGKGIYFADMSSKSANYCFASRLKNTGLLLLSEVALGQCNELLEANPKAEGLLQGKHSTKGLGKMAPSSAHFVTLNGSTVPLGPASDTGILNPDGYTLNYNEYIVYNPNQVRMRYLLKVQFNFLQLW
Chain of PARP1 (P09874 whole entry): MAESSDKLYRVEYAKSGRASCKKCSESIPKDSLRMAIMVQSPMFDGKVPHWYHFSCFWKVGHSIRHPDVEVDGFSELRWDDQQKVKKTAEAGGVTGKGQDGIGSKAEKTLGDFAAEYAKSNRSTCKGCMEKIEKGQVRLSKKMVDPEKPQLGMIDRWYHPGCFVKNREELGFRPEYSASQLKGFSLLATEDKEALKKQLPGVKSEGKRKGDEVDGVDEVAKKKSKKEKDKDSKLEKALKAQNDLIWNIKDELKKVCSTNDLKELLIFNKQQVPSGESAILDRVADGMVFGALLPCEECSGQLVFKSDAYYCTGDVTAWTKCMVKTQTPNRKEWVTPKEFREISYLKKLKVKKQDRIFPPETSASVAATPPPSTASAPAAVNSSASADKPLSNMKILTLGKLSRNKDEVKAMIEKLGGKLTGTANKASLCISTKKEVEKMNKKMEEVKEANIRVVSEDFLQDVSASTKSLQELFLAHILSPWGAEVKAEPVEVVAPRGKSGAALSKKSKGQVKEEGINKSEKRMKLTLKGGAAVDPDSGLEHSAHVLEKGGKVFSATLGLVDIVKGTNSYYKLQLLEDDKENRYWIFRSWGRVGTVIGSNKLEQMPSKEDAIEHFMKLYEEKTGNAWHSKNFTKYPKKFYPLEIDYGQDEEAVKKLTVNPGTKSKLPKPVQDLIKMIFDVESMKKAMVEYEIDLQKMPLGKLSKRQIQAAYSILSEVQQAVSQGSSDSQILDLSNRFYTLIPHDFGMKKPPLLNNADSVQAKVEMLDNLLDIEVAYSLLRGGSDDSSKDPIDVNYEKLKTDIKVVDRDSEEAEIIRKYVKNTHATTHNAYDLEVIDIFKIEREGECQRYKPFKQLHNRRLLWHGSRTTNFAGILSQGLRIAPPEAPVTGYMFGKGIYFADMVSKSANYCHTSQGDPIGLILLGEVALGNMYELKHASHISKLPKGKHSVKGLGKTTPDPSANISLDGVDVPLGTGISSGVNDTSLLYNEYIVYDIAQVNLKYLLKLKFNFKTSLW
Description for PARP1: (§1) Experimental Objective: To evaluate the inhibitory effect of the compounds of the present invention on the enzyme activities of PARP1 and PARP2 using ELISA.
(§2) • 1. histone-coated 384-well plates was prepared: 25 µL of histone solution was added to each well and incubated overnight at 4 °C. • 2. PBST buffer, blocking buffer (PBS buffer with 5% BSA and 0.05% Tween-20 added) and detection buffer (20 mM HEPES pH 7.5 + 100 mM NaCl + 2 mM DTT + 0.002% Tween-20 + 0.1% BSA) were prepared. • 3. The histone-coated 3 84-well plate was washed three times with PBST buffer, blocked at room temperature with 50 µL blocking buffer for 1 hour, and then washed three times with PBST buffer. • 4. Test compounds were prepared as 2000-fold stock solutions in DMSO. 50 nL of the stock solution was mixed with 19.95 µL detection buffer, and 5 µL of the gradient-diluted test compound was transferred to each well. • 5. Enzymatic reaction (PARP1): PARP1 & DNA mix was pre-incubated at 25 °C for 10 minutes. 10 µL of the PARP1 & DNA mix was added to each well and incubated with the test compound at room temperature for 10 minutes. […] Finally, the 384-well plate was washed three times with PBST buffer. Enzymatic reaction (PARP2): PARP2 was pre-incubated at 25 °C for 10 minutes. 10 µL of PARP2 was added to each well and incubated with the test compound at room temperature for 10 minutes. […] Finally, the 384-well plate was washed three times with PBST buffer. • 6. Detection (PARP1): 20 µL of anti-Poly/Mono-ADP Ribose Rabbit mAb was added and incubated at room temperature for 1.5 hours, followed by three washes of the 384-well plate with PBST buffer. Then, 20 µL of diluted anti-rabbit IgG, HRP-linked Antibody (diluted 1:2000 in blocking buffer) was added and incubated at room temperature for 1 hour. After washing the plate three times with PBST buffer, 25 µL of a 1:1 mixture of Femto-ECL Substrate A and Femto-ECL Substrate B was added. Detection (PARP2): 25 µL of Strep-HRP was added and incubated at room temperature for 1 hour, followed by three washes of the 384-well plate with PBS buffer. Then, 25 µL of a 1:1 mixture of Femto-ECL Substrate A and Femto-ECL Substrate B was added. • 7. Chemiluminescence intensity was measured using an Envision multimode microplate reader. • 8. Data Processing
(§3) The inhibition rate was calculated in Excel using formula (1). inh% = (Max−Signal)/(Max−Min)*100 [formula]
(§4) The IC50 value was obtained by fitting the data in XL-Fit using formula (2). Y = bottom + (top−bottom)/(1+(IC50/X)*HillSlope); [formula] wherein Y is the inhibition percentage and X is the compound concentration.
Description for PARP2: as §1, §2, §3, §4

On to `CC#Cc1cc(CN2CCN(c3ccc(C(=O)NC)nc3F)CC2)c(F)c2[nH]c(=O)c(C)nc12` [Example 21, 6-fluoro-5-(4-((5-fluoro-2-methyl-3-oxo-8-(prop-1-yn-1-yl)-3,4-dihydroquinoxalin-6-yl)methyl)piperazin-1-yl)-N-methylpicolinamide], for which the IC50 in the assay on DLD-1 BRCA2(-/-) cells was 22.2 nM; in the assay on MDA-MB-436 cells, 22.9 nM; against PARP1, 6.7 nM; on PARP2 it was > 10000 nM. Also, the “Selectivity PARP2/PARP1” value on PARP1 is given as >1480.
For `CNC(=O)c1ccc(N2CCN(Cc3cc(Oc4ccc(C#N)cc4)c4nc(C)c(=O)[nH]c4c3)CC2)c(F)n1` [Example 32, 5-(4-((8-(4-cyanophenoxy)-2-methyl-3-oxo-3,4-dihydroquinoxalin-6-yl)methyl)piperazin-1-yl)-6-fluoro-N-methylpicolinamide], in that order: 68.8 nM, 40.1 nM, 2.8 nM, > 10000 nM and >833.
For `CNC(=O)c1ccc(N2CCN(Cc3cc(Nc4ccc(F)cc4)c4nc(C)c(=O)[nH]c4c3)CC2)c(F)n1` [Example 33, 6-fluoro-5-(4-((8-((4-fluorophenyl)amino)-2-methyl-3-oxo-3,4-dihydroquinoxalin-6-yl)methyl)piperazin-1-yl)-N-methylpicolinamide], in that order: 9.3 nM, 4.1 nM, 1.2 nM, 234 nM and 188.8.
In the case of `CC#Cc1cc(CN2CC=C(c3ccc(C(=O)NC4CC4)nc3F)CC2)cc2[nH]c(=O)c(C)nc12` [Example 39, N-cyclopropyl-2-fluoro-1'-((2-methyl-3-oxo-8-(prop-1-yn-1-yl)-3,4-dihydroquinoxalin-6-yl)methyl)-1',2',3',6'-tetrahydro-[3,4'-bipyridine]-6-carboxamide], the IC50 is 7.7 nM with DLD-1 BRCA2(-/-) cells, < 0.038 nM with MDA-MB-436 cells, 2.9 nM against PARP1 and 599 nM against PARP2. Further, the “Selectivity PARP2/PARP1” value on PARP1 was determined as 206.8.
Turning to `CC#Cc1cc(CN2CCN(c3ccc(C#N)cn3)CC2)cc2[nH]c(=O)c(C)nc12` [Example 43, 6-(4-((2-methyl-3-oxo-8-(prop-1-yn-1-yl)-3,4-dihydroquinoxalin-6-yl)methyl)piperazin-1-yl)nicotinonitrile], the 50% inhibitory concentration (IC50) in the assay on DLD-1 BRCA2(-/-) cells came to 27 nM; in the assay with MDA-MB-436 cells, 8 nM; against PARP1 it was 1.5 nM; at PARP2, 583 nM. Besides, the “Selectivity PARP2/PARP1” value on PARP1 was 398.1.
In the same order, the values of `CNC(=O)c1ccc(C2=CCN(Cc3cc(OC(F)F)c4nc(C)c(=O)[nH]c4c3)CC2)cn1` [Example 44, 1'-((8-(difluoromethoxy)-2-methyl-3-oxo-3,4-dihydroquinoxalin-6-yl)methyl)-N-methyl-1',2',3',6'-tetrahydro-[3,4'-bipyridine]-6-carboxamide] are 9.3 nM, 1.3 nM, 0.8 nM, 148 nM and 184.1.
Turning to `CC#Cc1cc(CN2CCN(c3ccc(C(=O)NC)nc3C)CC2)c(F)c2[nH]c(=O)c(C)nc12` [Example 45, 5-(4-((5-fluoro-2-methyl-3-oxo-8-(prop-1-yn-1-yl)-3,4-dihydroquinoxalin-6-yl)methyl)piperazin-1-yl)-N,6-dimethylpicolinamide], the IC50 is 12 nM in the assay on DLD-1 BRCA2(-/-) cells, 11.1 nM in the assay on MDA-MB-436 cells, 7.7 nM at PARP1 and > 10000 nM against PARP2. In addition, the “Selectivity PARP2/PARP1” value on PARP1 was >1290.7.
In the same order, the values of `CC#Cc1cc(CN2CCN(c3ccc(C(=O)NC4CC4)nc3F)CC2)c(F)c2[nH]c(=O)c(C)nc12` [Example 47, N-cyclopropyl-6-fluoro-5-(4-((5-fluoro-2-methyl-3-oxo-8-(prop-1-yn-1-yl)-3,4-dihydroquinoxalin-6-yl)methyl)piperazin-1-yl)picolinamide] are 18.6 nM, 0.6 nM, 6.9 nM, > 10000 nM and >1456.3.
In the same order, the values of `CNC(=O)c1ccc(N2CCN(Cc3cc(OC(F)F)c4nc(C)c(=O)[nH]c4c3)CC2)cn1` [Example 49, 5-(4-((8-(difluoromethoxy)-2-methyl-3-oxo-3,4-dihydroquinoxalin-6-yl)methyl)piperazin-1-yl)-N-methylpicolinamide] are 12.9 nM, 9.1 nM, 3.2 nM, 54 nM and 17.0.
For `CNC(=O)c1ccc(N2CCN(Cc3cc(OC(F)F)c4nc(C5CC5)c(=O)[nH]c4c3)CC2)c(F)n1` [Example 54, 5-(4-((2-cyclopropyl-8-(difluoromethoxy)-3-oxo-3,4-dihydroquinoxalin-6-yl)methyl)piperazin-1-yl)-6-fluoro-N-methylpicolinamide], in that order: 18.4 nM, 28.7 nM, 7.6 nM, 203 nM and 26.7.
As to `CNC(=O)c1ccc(N2CCN(Cc3cc(OC(F)F)c4cc(C)c(=O)[nH]c4c3)CC2)c(F)n1` [Example 55, 5-(4-((5-(difluoromethoxy)-3-methyl-2-oxo-1,2-dihydroquinolin-7-yl)methyl)piperazin-1-yl)-6-fluoro-N-methylpicolinamide], the 50% inhibitory concentration (IC50) in the assay with DLD-1 BRCA2(-/-) cells was 3.9 nM; with MDA-MB-436 cells, < 0.038 nM; at PARP1, 1.9 nM; against PARP2 it was 14.3 nM. Further, at PARP1, the “Selectivity PARP2/PARP1” value stood at 7.6.
For `Cc1nc2c(OC(F)F)cc(CN3CCN(c4ccc(C(=O)N[C@H]5C[C@H]5F)nc4F)CC3)cc2[nH]c1=O` [Example 57, 5-(4-((8-(difluoromethoxy)-2-methyl-3-oxo-3,4-dihydroquinoxalin-6-yl)methyl)piperazin-1-yl)-6-fluoro-N-((1S,2R)-2-fluorocyclopropyl)picolinamide], in that order: 2.9 nM, 1.7 nM, 1.7 nM, 79.5 nM and 47.3.
For the compound `CNC(=O)c1ccc2c(n1)COC[C@H]1CN(Cc3cc(OC(F)F)c4nc(C)c(=O)[nH]c4c3)CCN21` [Example 59, (R)-3-((8-(difluoromethoxy)-2-methyl-3-oxo-3,4-dihydroquinoxalin-6-yl)methyl)-N-methyl-2,3,4,4a,5,7-hexahydro-1H-pyrazino[2,1-c]pyrido[3,2-e][1,4]oxazepine-9-carboxamide], the IC50 in the assay with DLD-1 BRCA2(-/-) cells was 8 nM; in the assay with MDA-MB-436 cells it was 26.3 nM; at PARP1, 1.9 nM; on PARP2, 1220 nM. The “Selectivity PARP2/PARP1” value at PARP1 stood at 650.4.
For `CNC(=O)c1ccc(N2CCN(Cc3cc(OC(F)F)c4nc(C)c(=O)[nH]c4c3F)CC2)c(C)n1` [Example 60, 5-(4-((8-(difluoromethoxy)-5-fluoro-2-methyl-3-oxo-3,4-dihydroquinoxalin-6-yl)methyl)piperazin-1-yl)-N,6-dimethylpicolinamide], in that order: 8.58 nM, 31.2 nM, 2.9 nM, 5820 nM and 2030.7.
For `CC#Cc1cc(CN2CCN3c4ccc(C(=O)NC)nc4COC[C@H]3C2)cc2[nH]c(=O)c(C)nc12` [Example 63, (R)-N-methyl-3-((2-methyl-3-oxo-8-(prop-1-yn-1-yl)-3,4-dihydroquinoxalin-6-yl)methyl)-2,3,4,4a,5,7-hexahydro-1H-pyrazino[2,1-c]pyrido[3,2-e][1,4]oxazepine-9-carboxamide], in that order: 16.1 nM, 6.2 nM, 3.2 nM, 1280 nM and 398.8.
